Earlier results as cited in paper PMC9851200, “Multiparameter phenotypic screening for endogenous TFEB and TFE3 translocation identifies novel chemical series modulating lysosome function” (Autophagy, 2022).
Like-named read-outs stand apart in the source and are kept apart here.

Legend:
Parameters in all cases: method as in original PKIS2 published data
[1] = molecular target: T1, kinases (KINOMEscan panel) (Homo sapiens, UniProt Q12866); conditions: kinase MERTK; Published KINOMEscan; ref original PKIS2 published data; cited from earlier work
T1 sequence (Q12866 21-999): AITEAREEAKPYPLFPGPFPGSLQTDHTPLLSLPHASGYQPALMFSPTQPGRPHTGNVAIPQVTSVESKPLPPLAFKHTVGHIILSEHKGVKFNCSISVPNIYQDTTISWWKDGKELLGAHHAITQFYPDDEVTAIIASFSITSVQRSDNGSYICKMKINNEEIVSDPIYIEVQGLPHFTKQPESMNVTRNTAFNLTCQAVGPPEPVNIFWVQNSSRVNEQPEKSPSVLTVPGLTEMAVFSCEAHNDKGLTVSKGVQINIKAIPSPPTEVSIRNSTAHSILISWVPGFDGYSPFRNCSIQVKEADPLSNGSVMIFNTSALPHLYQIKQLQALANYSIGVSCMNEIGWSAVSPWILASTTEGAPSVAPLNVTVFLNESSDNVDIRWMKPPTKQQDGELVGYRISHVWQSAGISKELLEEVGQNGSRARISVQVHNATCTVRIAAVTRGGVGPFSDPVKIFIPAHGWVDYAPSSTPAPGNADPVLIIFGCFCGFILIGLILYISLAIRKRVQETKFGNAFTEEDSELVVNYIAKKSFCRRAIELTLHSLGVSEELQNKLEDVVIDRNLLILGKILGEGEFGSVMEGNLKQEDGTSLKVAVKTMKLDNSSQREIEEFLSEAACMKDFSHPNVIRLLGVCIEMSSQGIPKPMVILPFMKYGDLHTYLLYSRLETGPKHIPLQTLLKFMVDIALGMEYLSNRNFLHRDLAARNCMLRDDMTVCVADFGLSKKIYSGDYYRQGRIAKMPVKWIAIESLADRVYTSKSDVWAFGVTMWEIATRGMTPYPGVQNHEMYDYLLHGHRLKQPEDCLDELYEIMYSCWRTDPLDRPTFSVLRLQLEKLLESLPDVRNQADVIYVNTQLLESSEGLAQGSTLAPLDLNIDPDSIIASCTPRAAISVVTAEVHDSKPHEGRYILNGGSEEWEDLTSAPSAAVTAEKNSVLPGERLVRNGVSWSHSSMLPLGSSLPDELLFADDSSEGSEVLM

[2] = molecular target: kinases (KINOMEscan panel) (Homo sapiens, UniProt Q9UKE5); conditions: TNIK; Published KINOMEscan; ref original PKIS2 published data; cited from earlier work
[3] = molecular target: kinases (KINOMEscan panel) (Homo sapiens, UniProt Q9Y3S1); conditions: WNK2; Published KINOMEscan; ref original PKIS2 published data; cited from earlier work
[4] = molecular target: kinases (KINOMEscan panel) (Homo sapiens, UniProt P19784); conditions: CSNK2A2; Published KINOMEscan; ref original PKIS2 published data; cited from earlier work
[5] = molecular target: kinases (KINOMEscan panel) (Homo sapiens, UniProt P12931); conditions: SRC; Published KINOMEscan; ref original PKIS2 published data; cited from earlier work
[6] = molecular target: kinases (KINOMEscan panel) (Homo sapiens, UniProt P14616); conditions: INSRR; Published KINOMEscan; ref original PKIS2 published data; cited from earlier work
[7] = molecular target: kinases (KINOMEscan panel) (Homo sapiens, UniProt Q96GD4); conditions: kinase AURKB; Published KINOMEscan; ref original PKIS2 published data; cited from earlier work
[8] = molecular target: kinases (KINOMEscan panel) (Homo sapiens, UniProt P24723); conditions: kinase PRKCH; Published KINOMEscan; ref original PKIS2 published data; cited from earlier work
[9] = molecular target: kinases (KINOMEscan panel) (Homo sapiens, UniProt Q9P1W9); conditions: PIM2; Published KINOMEscan; ref original PKIS2 published data; cited from earlier work
[10] = molecular target: T2, kinases (KINOMEscan panel) (Homo sapiens, UniProt O43318); conditions: Published KINOMEscan; ref original PKIS2 published data; cited from earlier work
T2 sequence (O43318 1-606): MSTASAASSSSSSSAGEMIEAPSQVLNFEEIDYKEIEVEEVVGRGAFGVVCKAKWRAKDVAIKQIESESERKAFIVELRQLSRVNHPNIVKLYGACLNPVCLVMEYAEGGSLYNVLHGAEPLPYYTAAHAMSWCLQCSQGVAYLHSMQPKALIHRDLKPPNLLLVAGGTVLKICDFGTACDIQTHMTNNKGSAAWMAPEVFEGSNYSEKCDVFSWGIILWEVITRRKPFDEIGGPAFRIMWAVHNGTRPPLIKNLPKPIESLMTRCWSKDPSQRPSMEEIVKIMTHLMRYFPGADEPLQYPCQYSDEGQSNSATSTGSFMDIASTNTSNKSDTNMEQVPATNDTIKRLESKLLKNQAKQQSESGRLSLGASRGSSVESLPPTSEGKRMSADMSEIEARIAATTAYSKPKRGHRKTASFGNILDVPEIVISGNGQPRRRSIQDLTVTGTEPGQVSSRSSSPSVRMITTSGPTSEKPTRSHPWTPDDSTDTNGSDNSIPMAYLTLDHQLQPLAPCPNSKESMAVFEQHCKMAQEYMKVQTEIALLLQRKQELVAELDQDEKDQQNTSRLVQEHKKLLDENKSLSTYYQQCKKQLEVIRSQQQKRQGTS

[11] = tested on: kinases (KINOMEscan panel); conditions: Published KINOMEscan, ref original PKIS2 published data, cited from earlier work
[12] = molecular target: kinases (KINOMEscan panel) (Homo sapiens, UniProt P51957); conditions: kinase NEK4; Published KINOMEscan; ref original PKIS2 published data; cited from earlier work
Chain of kinases (KINOMEscan panel) (Homo sapiens, UniProt P51957) (P51957 whole entry): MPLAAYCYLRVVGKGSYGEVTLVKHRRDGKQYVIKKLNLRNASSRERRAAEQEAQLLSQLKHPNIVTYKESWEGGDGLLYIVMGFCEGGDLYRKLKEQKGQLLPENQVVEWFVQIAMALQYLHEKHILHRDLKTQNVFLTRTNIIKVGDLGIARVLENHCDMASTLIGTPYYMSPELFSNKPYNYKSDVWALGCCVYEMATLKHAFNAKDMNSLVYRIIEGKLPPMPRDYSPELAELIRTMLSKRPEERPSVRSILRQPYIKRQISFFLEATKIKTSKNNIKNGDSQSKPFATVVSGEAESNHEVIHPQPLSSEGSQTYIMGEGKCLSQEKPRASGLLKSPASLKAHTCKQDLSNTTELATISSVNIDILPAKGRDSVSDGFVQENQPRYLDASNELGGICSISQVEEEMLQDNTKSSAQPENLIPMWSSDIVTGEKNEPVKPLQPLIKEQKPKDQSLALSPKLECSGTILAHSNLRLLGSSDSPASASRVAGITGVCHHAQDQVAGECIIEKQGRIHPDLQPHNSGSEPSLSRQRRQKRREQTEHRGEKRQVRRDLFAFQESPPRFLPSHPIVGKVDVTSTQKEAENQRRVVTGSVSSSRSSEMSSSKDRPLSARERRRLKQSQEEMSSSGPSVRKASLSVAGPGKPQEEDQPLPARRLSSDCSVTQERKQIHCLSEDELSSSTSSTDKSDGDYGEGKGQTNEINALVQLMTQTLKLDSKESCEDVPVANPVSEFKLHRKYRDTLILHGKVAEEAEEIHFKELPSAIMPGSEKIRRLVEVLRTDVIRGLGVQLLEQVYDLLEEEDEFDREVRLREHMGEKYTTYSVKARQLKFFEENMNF

Chain of kinases (KINOMEscan panel) (Homo sapiens, UniProt Q9UKE5) (Q9UKE5 whole entry): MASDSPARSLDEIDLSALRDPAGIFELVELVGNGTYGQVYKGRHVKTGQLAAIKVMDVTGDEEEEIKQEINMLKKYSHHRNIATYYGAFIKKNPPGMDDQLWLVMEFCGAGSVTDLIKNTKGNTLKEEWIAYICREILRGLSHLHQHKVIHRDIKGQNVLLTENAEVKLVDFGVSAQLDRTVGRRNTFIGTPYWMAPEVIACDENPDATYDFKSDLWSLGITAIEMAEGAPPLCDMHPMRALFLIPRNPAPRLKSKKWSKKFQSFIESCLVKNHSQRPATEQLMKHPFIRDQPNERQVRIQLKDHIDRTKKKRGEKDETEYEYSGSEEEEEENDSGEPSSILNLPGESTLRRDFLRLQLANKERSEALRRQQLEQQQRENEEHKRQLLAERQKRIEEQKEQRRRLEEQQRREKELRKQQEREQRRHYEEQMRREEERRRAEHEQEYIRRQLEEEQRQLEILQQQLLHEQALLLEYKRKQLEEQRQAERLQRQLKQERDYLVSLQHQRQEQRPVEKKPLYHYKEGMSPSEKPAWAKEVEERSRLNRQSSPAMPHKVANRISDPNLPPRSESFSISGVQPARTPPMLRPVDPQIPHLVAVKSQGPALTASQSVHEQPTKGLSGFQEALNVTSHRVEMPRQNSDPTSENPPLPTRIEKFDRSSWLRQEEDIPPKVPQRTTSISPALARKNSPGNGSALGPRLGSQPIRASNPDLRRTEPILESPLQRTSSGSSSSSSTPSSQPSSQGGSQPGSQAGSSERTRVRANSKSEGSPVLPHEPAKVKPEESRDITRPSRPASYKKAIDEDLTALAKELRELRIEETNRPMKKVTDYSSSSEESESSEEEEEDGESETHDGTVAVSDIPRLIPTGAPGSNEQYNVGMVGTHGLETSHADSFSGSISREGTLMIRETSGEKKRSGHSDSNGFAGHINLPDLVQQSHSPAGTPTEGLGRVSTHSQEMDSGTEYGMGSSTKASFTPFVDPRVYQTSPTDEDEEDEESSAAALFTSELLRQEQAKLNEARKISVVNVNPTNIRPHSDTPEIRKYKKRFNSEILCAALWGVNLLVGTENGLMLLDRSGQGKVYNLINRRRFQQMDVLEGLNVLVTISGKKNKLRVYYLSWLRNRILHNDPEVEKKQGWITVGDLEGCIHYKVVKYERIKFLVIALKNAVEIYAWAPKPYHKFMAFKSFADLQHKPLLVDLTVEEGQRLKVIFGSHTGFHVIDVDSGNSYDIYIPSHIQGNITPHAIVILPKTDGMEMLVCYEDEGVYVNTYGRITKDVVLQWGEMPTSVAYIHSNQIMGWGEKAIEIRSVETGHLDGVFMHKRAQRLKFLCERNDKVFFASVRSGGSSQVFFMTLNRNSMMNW
Chain of kinases (KINOMEscan panel) (Homo sapiens, UniProt P14616) (P14616 27-1297): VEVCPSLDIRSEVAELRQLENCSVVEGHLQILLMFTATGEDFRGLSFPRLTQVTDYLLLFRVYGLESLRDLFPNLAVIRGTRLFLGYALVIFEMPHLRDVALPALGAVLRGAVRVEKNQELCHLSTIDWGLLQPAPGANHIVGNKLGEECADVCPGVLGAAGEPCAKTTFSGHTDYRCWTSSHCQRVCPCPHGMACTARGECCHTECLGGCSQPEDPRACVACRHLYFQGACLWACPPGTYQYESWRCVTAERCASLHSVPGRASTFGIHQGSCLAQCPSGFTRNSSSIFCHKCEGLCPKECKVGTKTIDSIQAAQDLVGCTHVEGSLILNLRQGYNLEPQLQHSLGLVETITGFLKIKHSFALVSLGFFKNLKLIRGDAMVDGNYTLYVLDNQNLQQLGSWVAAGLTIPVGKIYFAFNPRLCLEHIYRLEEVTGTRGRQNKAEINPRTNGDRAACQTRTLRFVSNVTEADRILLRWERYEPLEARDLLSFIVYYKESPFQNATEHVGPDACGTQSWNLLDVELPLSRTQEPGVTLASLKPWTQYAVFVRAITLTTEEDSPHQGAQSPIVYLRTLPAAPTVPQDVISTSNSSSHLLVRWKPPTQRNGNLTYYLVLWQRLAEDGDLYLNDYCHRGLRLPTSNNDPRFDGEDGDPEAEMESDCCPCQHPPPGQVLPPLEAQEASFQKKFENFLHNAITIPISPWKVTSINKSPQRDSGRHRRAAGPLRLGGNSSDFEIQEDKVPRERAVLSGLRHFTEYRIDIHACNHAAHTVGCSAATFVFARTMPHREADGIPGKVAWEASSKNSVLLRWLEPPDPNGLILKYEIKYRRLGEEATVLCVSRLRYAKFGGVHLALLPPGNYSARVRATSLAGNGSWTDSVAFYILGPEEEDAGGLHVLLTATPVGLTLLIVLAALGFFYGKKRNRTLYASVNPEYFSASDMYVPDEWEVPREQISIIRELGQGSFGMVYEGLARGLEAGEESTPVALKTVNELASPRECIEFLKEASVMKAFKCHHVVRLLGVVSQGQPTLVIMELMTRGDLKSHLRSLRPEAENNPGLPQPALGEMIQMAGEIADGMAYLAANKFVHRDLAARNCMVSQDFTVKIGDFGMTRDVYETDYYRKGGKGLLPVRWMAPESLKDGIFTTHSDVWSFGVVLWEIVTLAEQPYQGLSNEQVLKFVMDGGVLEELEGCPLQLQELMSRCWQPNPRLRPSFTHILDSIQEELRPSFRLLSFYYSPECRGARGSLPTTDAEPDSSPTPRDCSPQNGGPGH
Chain of kinases (KINOMEscan panel) (Homo sapiens, UniProt P24723) (P24723 whole entry): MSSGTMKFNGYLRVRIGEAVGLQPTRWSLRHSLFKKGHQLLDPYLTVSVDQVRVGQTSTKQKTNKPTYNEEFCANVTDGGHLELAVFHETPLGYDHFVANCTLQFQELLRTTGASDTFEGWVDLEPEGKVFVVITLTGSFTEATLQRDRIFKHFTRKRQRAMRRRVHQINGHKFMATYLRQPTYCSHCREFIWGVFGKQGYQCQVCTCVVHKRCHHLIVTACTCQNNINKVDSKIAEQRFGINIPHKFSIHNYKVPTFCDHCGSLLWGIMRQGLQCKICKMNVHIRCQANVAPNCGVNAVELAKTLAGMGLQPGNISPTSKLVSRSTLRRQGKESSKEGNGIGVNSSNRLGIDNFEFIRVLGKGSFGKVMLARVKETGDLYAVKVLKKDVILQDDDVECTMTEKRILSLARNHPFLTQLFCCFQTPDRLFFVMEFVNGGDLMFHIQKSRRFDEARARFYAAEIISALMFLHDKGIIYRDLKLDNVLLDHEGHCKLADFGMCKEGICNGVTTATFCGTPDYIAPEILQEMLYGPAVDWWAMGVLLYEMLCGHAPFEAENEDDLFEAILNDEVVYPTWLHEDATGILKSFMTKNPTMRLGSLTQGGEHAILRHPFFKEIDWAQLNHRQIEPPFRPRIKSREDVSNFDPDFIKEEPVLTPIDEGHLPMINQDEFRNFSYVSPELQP
Chain of kinases (KINOMEscan panel) (Homo sapiens, UniProt P12931) (P12931 whole entry): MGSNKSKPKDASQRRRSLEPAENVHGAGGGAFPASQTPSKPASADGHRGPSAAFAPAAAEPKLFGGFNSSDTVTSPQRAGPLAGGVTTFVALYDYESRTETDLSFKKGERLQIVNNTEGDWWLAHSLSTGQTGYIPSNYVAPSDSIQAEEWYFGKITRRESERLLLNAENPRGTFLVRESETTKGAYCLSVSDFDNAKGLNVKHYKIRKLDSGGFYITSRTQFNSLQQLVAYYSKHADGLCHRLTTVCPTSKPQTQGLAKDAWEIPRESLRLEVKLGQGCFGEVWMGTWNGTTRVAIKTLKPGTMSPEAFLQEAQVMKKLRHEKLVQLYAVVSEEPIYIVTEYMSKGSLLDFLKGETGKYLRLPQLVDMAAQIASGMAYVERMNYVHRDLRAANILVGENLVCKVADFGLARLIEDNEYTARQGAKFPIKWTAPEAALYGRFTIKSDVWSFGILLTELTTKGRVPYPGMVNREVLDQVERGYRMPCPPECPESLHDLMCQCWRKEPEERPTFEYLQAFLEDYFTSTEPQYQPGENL
Chain of kinases (KINOMEscan panel) (Homo sapiens, UniProt P19784) (P19784 whole entry): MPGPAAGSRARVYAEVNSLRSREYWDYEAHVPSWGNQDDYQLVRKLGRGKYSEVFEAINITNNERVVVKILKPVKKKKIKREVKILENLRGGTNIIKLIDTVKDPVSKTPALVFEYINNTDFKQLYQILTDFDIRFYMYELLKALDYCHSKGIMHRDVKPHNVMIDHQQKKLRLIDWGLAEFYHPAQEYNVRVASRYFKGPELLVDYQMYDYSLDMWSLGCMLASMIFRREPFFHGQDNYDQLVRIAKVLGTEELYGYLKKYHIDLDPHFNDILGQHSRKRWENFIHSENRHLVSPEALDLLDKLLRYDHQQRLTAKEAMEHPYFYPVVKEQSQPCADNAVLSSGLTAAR

Cc1cccc(-c2nc(Nc3ccncc3)c3ccccc3n2)n1 [NK215]
KINOMEscan MERTK [1]: 9
KINOMEscan TNIK [2]: 29
KINOMEscan WNK2 [3]: 0
KINOMEscan CSNK2A2 [4]: 0
KINOMEscan SRC [5]: 20
KINOMEscan INSRR [6]: 0
KINOMEscan AURKB [7]: 10
KINOMEscan PRKCH [8]: 0
KINOMEscan PIM2 [9]: 18
KINOMEscan MAP3K7 [10]: 0
KINOMEscan PRKAA2 [11]: 0
KINOMEscan PRKAA2 ([11]; kinase PRKAA2): 12
KINOMEscan NEK4 [12]: 0
